From US9462805B2, “Herbicide-resistant proteins, encoding genes, and uses thereof” (Beijing Dabeinong Technology Group Co., Ltd., priority 2012, dated 2016)

How the values were obtained:
wild type maize plants = assay: Herbicide-resistance effect test of wild type (CK) corn; assay type: in vivo; details: 8960 g ae/ha sprayed, 21 days after spraying; for Abnormal development of prop roots / Normal development of prop roots: number of plants
Experimental: (§1) Herbicide resistance effects tests to 2,4-D dimethyl ammonium salt and agroxone of maize plants containing 24DT02 nucleotide sequence, 24DT02 substituted nucleotide sequence, 24DT02 truncated nucleotide sequence, 24DT02 added nucleotide sequence, control nucleotide sequence respectively and wild type maize plants (stages V3-V4) were performed respectively.
(§2) Maize plants containing 24DT02 nucleotide sequence, 24DT02 substituted nucleotide sequence, 24DT02 truncated nucleotide sequence, 24DT02 added nucleotide sequence, control nucleotide sequence respectively and wild type maize plants were taken and spayed with 2,4-D dimethyl ammonium salt (8960 g ae/ha, 16-folds concentration in field), agroxone (8960 g ae/ha, 16-folds concentration in field) and blank solvent (water) respectively. Prop root development was counted 21 days after spaying. Three strains (S1, S2, and S3) of corn plants transfected with 24DT02 nucleotide sequence, two strains (S4 and S5) of corn plants transfected with 24DT02 substituted nucleotide sequence, two strains (S6 and S7) of corn plants transfected with 24DT02 truncated nucleotide sequence, two strains (S8 and S9) of corn plants transfected with 24DT02 added nucleotide sequence, two strains (S10 and S11) of corn plants transfected with control nucleotide sequence and 1 strain of wild type (CK) corn were selected and 10-15 plants from each stain were tested.

[1] = tested on: corn plants transfected with 24DT02 truncated nucleotide sequence; assay: Herbicide-resistance effect test of transgenic corn plants (truncated 24DT02; strains S6, S7); assay type: in vivo, maize; details: 8960 g ae/ha sprayed, 21 days after spraying; for Abnormal development of prop roots / Normal development of prop roots: number of plants
Experimental: as §1, §2

[2] = tested on: corn plants transfected with 24DT02 nucleotide sequence; assay: Herbicide-resistance effect test of transgenic corn plants (24DT02; strains S1-S3); assay type: in vivo, maize; details: 21 days after spraying; for Normal development of prop roots / Abnormal development of prop roots: number of plants
Experimental: as §1, §2

[3] = tested on: Arabidopsis T1 plants transformed with truncated 24DT02 nucleotide sequence; assay: Herbicide resistance effect test of transgenic Arabidopsis T1 plants (24DT02-t); assay type: in vivo, Arabidopsis thaliana; details: number of T1 plants, genotype 24DT02-t, 560 g ae/ha sprayed; for Moderately resistant: curly rosette leaves 7 days after spraying; for Non-resistant: dead 14 days after spraying; for Highly resistant: growth consistent with blank solvent 7 days after spraying; for Lowly resistant: incapable of bolting 14 days after spraying
Experimental: (§3) On 7 days after planting (DAP) and 11 DAP respectively, the T1 plants (cotyledon stage and 2-4 leaves stage, respectively) were sprayed with 0.2% of Liberty herbicide solution (200 g ai/L glufosinate-ammonium) using DeVilbiss compressed air nozzle at a spraying volume of 10 ml/disc (703 L/ha) so as to provide effective amount of glufosinate-ammonium (280 g ai/ha) for each application. The survival plants (actively growing plants) were verified 4 to 7 days after the last spraying and transferred into the square pot (7 cm×7 cm) made from vermiculite and horses dung (3-5 plants per pot). The transplanted plants were covered with moisturizing mask for 3-4 days and placed in culture room at 22° C. or directly into the greenhouse as described above. Then the mask was removed and the plants were planted in greenhouse (22±5° C., 50±30% RH, 14 hours of lighting: 10 hours of darkness, minimum […] natural light+complement light) at least one day before testing the ability of 24DT02 to provide the resistance to phenoxy auxin herbicide.
(§4) 24DT02 gene was used to transform Arabidopsis for the first time. At first, T1 transformants were selected from the background of un-transformed seeds, using glufosinate-ammonium selection scheme. About 40000 T1 seeds were screened among which 195 strains of T1 generation positive transformants (PAT gene) were identified, i.e. the transformation efficiency was about 0.5%. Herbicide resistance effect tests to 2,4-D dimethyl ammonium salt and agroxone of Arabidopsis T1 plants transformed with 24DT02 nucleotide sequence, substituted 24DT02 nucleotide sequence, truncated 24DT02 nucleotide sequence, added 24DT02 nucleotide sequence, control nucleotide sequence respectively and wild-type Arabidopsis plants were performed after 18 days of planting.
(§5) Arabidopsis T1 plants transformed with 24DT02 nucleotide sequence, substituted 24DT02 nucleotide sequence, truncated 24DT02 nucleotide sequence, added 24DT02 nucleotide sequence and control nucleotide sequence respectively and wild-type Arabidopsis plants were sprayed with 2,4-D dimethyl ammonium salt (560 g ae/ha, 1-fold concentration in field), agroxone (560 g ae/ha, 1-fold concentration in field) and blank solvent (water). Resistance conditions of the plants were counted 7 days and 14 days after spraying. Plants with growth conditions consistent with blank solvent (water) 7 days after spaying were classified as highly resistant plants; Plants with curly rosette leaves 7 days after spaying were classified as moderately resistant plants; Plants incapable of bolting 14 days after spaying were classified as low-resistant plants and the dead plants 14 days after spaying were classified as non-resistant plants. Because each Arabidopsis T1 plant was an independent transformation event, significant differences of individual T1 responses were expected under a given dose.

[4] = tested on: Arabidopsis T1 plants transformed with control nucleotide sequence; assay: Herbicide resistance effect test of Arabidopsis T1 plants (control sequence); assay type: in vivo, Arabidopsis thaliana; details: number of T1 plants, 560 g ae/ha sprayed; for Highly resistant: genotype Control (control sequence), growth consistent with blank solvent 7 days after spraying; for Moderately resistant / Non-resistant / Lowly resistant: genotype Control; for Moderately resistant: curly rosette leaves 7 days after spraying; for Non-resistant: dead 14 days after spraying; for Lowly resistant: incapable of bolting 14 days after spraying
Experimental: as §3, §4, §5

[5] = tested on: Arabidopsis T1 plants transformed with substituted 24DT02 nucleotide sequence; assay: Herbicide resistance effect test of transgenic Arabidopsis T1 plants (24DT02-i); assay type: in vivo, Arabidopsis thaliana; details: number of T1 plants, genotype 24DT02-i, 560 g ae/ha sprayed; for Moderately resistant: curly rosette leaves 7 days after spraying; for Non-resistant: dead 14 days after spraying; for Highly resistant: growth consistent with blank solvent 7 days after spraying; for Lowly resistant: incapable of bolting 14 days after spraying
Experimental: as §3, §4, §5

[6] = tested on: Arabidopsis T1 plants transformed with 24DT02 nucleotide sequence; assay: Herbicide resistance effect test of transgenic Arabidopsis T1 plants (24DT02); assay type: in vivo, Arabidopsis thaliana; details: number of T1 plants, genotype 24DT02; for Highly resistant: 560 g ae/ha (1-fold field concentration) sprayed, growth consistent with blank solvent 7 days after spraying; for Moderately resistant / Non-resistant / Lowly resistant: 560 g ae/ha sprayed; for Moderately resistant: curly rosette leaves 7 days after spraying; for Non-resistant: dead 14 days after spraying; for Lowly resistant: incapable of bolting 14 days after spraying
Experimental: as §3, §4, §5

Arabidopsis = assay: Effective dose distinguishing sensitive from resistant Arabidopsis; assay type: in vivo
[7] = corn strain S6 (truncated 24DT02)
[8] = corn strain S7 (truncated 24DT02)
[9] = corn strain S1 (24DT02), 8960 g ae/ha sprayed
[10] = corn strain S2 (24DT02), 8960 g ae/ha sprayed
[11] = corn strain S3 (24DT02), 8960 g ae/ha sprayed
[12] = corn strain S1 (24DT02), 8960 g ae/ha (16-fold field concentration) sprayed at V3-V4

Row | Compound | Ratio of the normally developed prop roots (wild type maize plants) | Abnormal development of prop roots (wild type maize plants) | Normal development of prop roots (wild type maize plants) | Ratio of the normally developed prop roots [1, 7] | Ratio of the normally developed prop roots [1, 8] | Abnormal development of prop roots [1, 7] | Normal development of prop roots [1, 7] | Abnormal development of prop roots [1, 8] | Normal development of prop roots [1, 8] | Ratio of the normally developed prop roots [2, 9] | Ratio of the normally developed prop roots [2, 10] | Ratio of the normally developed prop roots [2, 11] | Normal development of prop roots [2, 12] | Abnormal development of prop roots [2, 9] | Abnormal development of prop roots [2, 10] | Normal development of prop roots [2, 10] | Abnormal development of prop roots [2, 11] | Normal development of prop roots [2, 11] | Moderately resistant [3] | Non-resistant [3] | other results
1 | CNC.O=C(O)COc1ccc(Cl)cc1Cl [2,4-D dimethyl ammonium salt] | 0% | 16 | 0 | 86.67% | 92.86% | 2 | 13 | 1 | 13 | 81.25% | 91.67% | 85.71% | 13 | 3 | 1 | 11 | 2 | 12 | 5 | 4 | Highly resistant [3]: 7; Lowly resistant [3]: 0; Highly resistant [4]: 0; Moderately resistant [4]: 0; Non-resistant [4]: 18; Lowly resistant [4]: 0; Moderately resistant [5]: 4; Non-resistant [5]: 4; Highly resistant [5]: 8; Lowly resistant [5]: 1; Highly resistant [6]: 9; Moderately resistant [6]: 4; Non-resistant [6]: 5; Lowly resistant [6]: 0
2 | Cc1cc(Cl)ccc1OCC(=O)O [agroxone] | 0% | 16 | 0 | 87.50% | 86.67% | 2 | 14 | 2 | 13 | 87.50% | 100.00% | 92.31% | 14 | 2 | 0 | 12 | 1 | 12 | 4 | 4 | Highly resistant [3]: 8; Lowly resistant [3]: 2; Highly resistant [4]: 0; Moderately resistant [4]: 0; Non-resistant [4]: 17; Lowly resistant [4]: 0; effective dose to distinguish the sensitive plants from plants with average resistance (Arabidopsis): 50 g ae/ha; Moderately resistant [5]: 5; Non-resistant [5]: 6; Highly resistant [5]: 9; Lowly resistant [5]: 1; Highly resistant [6]: 8; Moderately resistant [6]: 6; Non-resistant [6]: 4; Lowly resistant [6]: 2
